# Measured values as given in patent publication US20250186408A1, “TREATMENT OF PHARMACORESISTANT EPILEPSY” (Katholieke Universiteit Leuven, priority 2021, published 2025).
# Like-named read-outs stand apart in the source and are kept apart here.
# Tests used:
# [1] = biological target: KvLQT1/minK (Homo sapiens, UniProt P51787); assay: Ion Channel KvLQT1/minK Opener; format: cell-based; details: for Emax: read-out: Max response
# [2] = biological target: CHRM3 (Homo sapiens, UniProt P20309); assay: Calcium Flux CHRM3 Antagonist; details: for Emax: read-out: Max response
# Protocol: (§1) In vitro pharmacological profiling of compounds was done against 78 functional assays for 47 common off-targets (30) by Eurofins DiscoverX Corporation (Fremont, CA, USA) using their SAFETYscan E/IC50 ELECT service (Cat Ref 87-1003DR, Safety47 Panel Dose Response). […] Compounds were tested in a range of 10 concentrations, following a 3-fold serial dilution, starting from 10 μM. The assays were performed utilizing the PathHunter enzyme fragment complementation (EFC) technology, FLIPR®-based cellular screening assays, and KINOMEscan kinase binding assays.
# Prior to testing, cells (10,000 cells/well) were expanded from freezer stocks and seeded into a total volume of 50 μL into black walled, clear-bottom, Poly-D-lysine coated 384-well microplates and incubated at 37° C. […] Assays were performed in 1× dye loading buffer consisting of 1× Dye (DiscoverX, Calcium No Wash^PLUS kit, Catalog No. 90-0091), 1× Additive A and 2.5 mM Probenecid in HBSS/20 mM HEPES. Probenecid was prepared fresh. Prior to testing, media was aspirated from cells and replaced with 25 μL dye loading buffer. Cells were incubated for 45 min at 37° C. and then 20 min at RT. For agonist determination, 25 μL of 2× compound in HBSS/20 mM HEPES was added using a FLIPR Tetra (MDS). For antagonist determination, cells were pre-incubated with sample followed by agonist challenge at the EC80 concentration. 25 μL of 2× sample was added and cells were incubated for 30 min at RT in the dark to equilibrate plate temperature. After incubation, antagonist determination was initiated by addition of 25 μL of 1× compound with 3×EC80 agonist using FLIPR. For both agonist and antagonist formats, activity was measure on a FLIPR Tetra (MDS). Calcium mobilization was monitored for 2 min with a 5 sec baseline read.
# FLIPR read—Area under the curve, was calculated for the entire 2 min read. Compound activity was analysed using CBIS data analysis suite (ChemInnovation, CA).
# [3] = biological target: CNR1 (Homo sapiens, UniProt P21554); assay: cAMP CNR1 Agonist; details: for Emax: read-out: Max response
# Protocol: as §1
# cAMP Hunter cell lines were expanded from freezer stocks. Prior to testing, cells were seeded in a total volume of 20 μL into white walled 384-well microplates and incubated at 37° C. cAMP modulation was determined using the DiscoverX HitHunter cAMP XS+ assay. For Gs agonist determination, cells were incubated with sample to induce response. For Gi agonist determination, cells were incubated with sample in the presence of EC80 forskolin to induce response. For both conditions, media was aspirated from cells and replaced with 15 μL 2:1 HBSS/10 mM HEPES:cAMP XS+ Ab reagent. Intermediate dilution of sample stocks was performed to generate 4× sample in assay buffer (containing 4×EC80 forskolin in the case of antagonist determination). 5 μL of 4× sample was added to cells and incubated at 37° C. or room temperature (RT) for 30 or 60 min. Final assay vehicle concentration was 1%. For antagonist determination, cells were pre-incubated with sample followed by agonist challenge at the EC80 concentration. Media was aspirated from cells and replaced with 10 μL 1:1 HBSS/HEPES:cAMP XS+ Ab reagent. 5 μL of 4× compound was added to the cells and incubated at 37° C. or RT for 30 min. 5 μL of 4×EC80 agonist was added to the cells and incubated at 37° C. or RT for 30 or 60 min. For Gi coupled GPCRs, EC80 forskolin was included. […] Microplates were read following signal generation with a PerkinElmer Envision™ instrument for chemiluminescent signal detection. Compound activity was analyzed using CBIS data analysis suite (ChemInnovation, CA).
# [4] = biological target: HRH1 (Homo sapiens, UniProt P35367); assay: Calcium Flux HRH1 Antagonist; format: cell-based; details: for Emax: read-out: Max response
# Protocol: (≤0.2% DMSO concentration). Assays were performed in 1× dye loading buffer consisting of 1× Dye (DiscoverX, Calcium No Wash^PLUS kit, Catalog No. 90-0091), 1× Additive A and 2.5 mM Probenecid in HBSS/20 mM HEPES. Probenecid was prepared fresh. Prior to testing, media was aspirated from cells and replaced with 25 μL dye loading buffer. Cells were incubated for 45 min at 37° C. and then 20 min at RT. For agonist determination, 25 μL of 2× compound in HBSS/20 mM HEPES was added using a FLIPR Tetra (MDS). […] 25 μL of 2× sample was added and cells were incubated for 30 min at RT in the dark to equilibrate plate temperature. After incubation, antagonist determination was initiated by addition of 25 μL of 1× compound with 3×EC80 agonist using FLIPR. For both agonist and antagonist formats, activity was measure on a FLIPR Tetra (MDS). Calcium mobilization was monitored for 2 min with a 5 sec baseline read.
# FLIPR read—Area under the curve, was calculated for the entire 2 min read.
# [5] = biological target: T1, COX2 (Homo sapiens, UniProt P35354); assay: Enzymatic COX2 Inhibitor; format: biochemical; details: for IC50: read-out: RC50, result type IC50; for Emax: read-out: Max response
# T1 construct: purchased BPS Bioscience
# T1 sequence (P35354 18-604): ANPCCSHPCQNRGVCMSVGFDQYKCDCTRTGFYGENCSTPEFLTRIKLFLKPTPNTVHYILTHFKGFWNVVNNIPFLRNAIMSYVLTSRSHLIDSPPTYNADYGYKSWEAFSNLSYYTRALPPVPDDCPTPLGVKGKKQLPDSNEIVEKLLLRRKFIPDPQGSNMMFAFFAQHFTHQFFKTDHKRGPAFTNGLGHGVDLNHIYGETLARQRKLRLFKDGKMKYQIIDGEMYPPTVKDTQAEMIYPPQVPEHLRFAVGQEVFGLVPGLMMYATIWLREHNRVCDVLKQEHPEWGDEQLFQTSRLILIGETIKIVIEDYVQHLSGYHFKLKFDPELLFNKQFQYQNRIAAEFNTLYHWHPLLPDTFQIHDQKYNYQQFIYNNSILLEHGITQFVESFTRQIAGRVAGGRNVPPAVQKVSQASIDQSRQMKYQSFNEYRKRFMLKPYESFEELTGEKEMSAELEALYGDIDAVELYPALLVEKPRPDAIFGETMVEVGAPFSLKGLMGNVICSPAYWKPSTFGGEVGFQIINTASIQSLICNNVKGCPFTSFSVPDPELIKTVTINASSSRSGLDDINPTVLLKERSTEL
# Protocol: Enzyme preparations were sourced from various vendors-AChE (R&D Systems), COX1 and COX2 (BPS Bioscience), MAOA (Sigma), PDE3A and PDE4D2 (Signal Chem). AChE: enzyme and test compound were pre-incubated for 15 min at RT before substrate addition. Acetylthiocholine and DTNB were added and incubated at RT for 30 min. Signal was detected by measuring absorbance at 405 nm. COX1 and COX2: enzyme stocks were diluted in assay buffer (40 mM Tris-HCl, 1×PBS, 0.5 mM Phenol, 0.01% Tween 20 and 10 nM Hematin) and allowed to equilibrate with compounds at RT for 30 min (binding incubation). Arachidonic acid (1.7 μM) and Ampliflu Red (2.5 μM) were prepared and dispended into a reaction plate. Plates were read immediately on a fluorimeter with the emission detection at 590 nm and excitation wavelength 544 nm. MAOA: enzyme and test compound were pre-incubated for 15 min at 37° C. before substrate addition. The reaction was initiated by addition of kynuramine and incubated at 37° C. for 30 min. The reaction was terminated by addition of NaOH. The amount of 4-hydroquinoline formed was determined through spectrofluorometric readout with the emission detection at 380 nm and excitation wavelength 310 nm. PDE3A and PDE4D2: enzyme and test compound were pre-incubated for 15 min at RT before substrate addition. cAMP substrate (at a concentration equal to EC80) was added and incubated at RT for 30 min. Enzyme reaction was terminated by addition of 9 mM IBMX. Signal was detected using the HitHunter® cAMP detection kit. Microplates were transferred to a PerkinElmer Envision™ instrument and read out as described for each assay. […] For enzyme activity assays, percentage inhibition was calculated using the following equation: […]
# [6] = biological target: T2, ADRA2A (Homo sapiens, UniProt P08913); assay: cAMP ADRA2A Antagonist; details: for Emax: read-out: Max response
# T2 sequence (P08913 1-465): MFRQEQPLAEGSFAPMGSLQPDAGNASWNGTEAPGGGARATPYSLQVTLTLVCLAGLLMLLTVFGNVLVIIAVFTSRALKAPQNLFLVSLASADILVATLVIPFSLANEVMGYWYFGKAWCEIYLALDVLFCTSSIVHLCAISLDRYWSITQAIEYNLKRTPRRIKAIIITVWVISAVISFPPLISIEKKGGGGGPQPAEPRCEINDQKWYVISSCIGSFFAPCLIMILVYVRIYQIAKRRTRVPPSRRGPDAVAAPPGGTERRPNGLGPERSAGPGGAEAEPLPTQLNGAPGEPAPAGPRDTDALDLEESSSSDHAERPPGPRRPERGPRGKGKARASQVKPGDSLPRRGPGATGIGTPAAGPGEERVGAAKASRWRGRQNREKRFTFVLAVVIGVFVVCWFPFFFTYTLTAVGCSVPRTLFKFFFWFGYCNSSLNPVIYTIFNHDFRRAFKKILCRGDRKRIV
# Protocol: In vitro pharmacological profiling of compounds was done against 78 functional assays for 47 common off-targets (30) by Eurofins DiscoverX Corporation (Fremont, CA, USA) using their SAFETYscan E/IC50 ELECT service (Cat Ref 87-1003DR, Safety47 Panel Dose Response). […] Compounds were tested in a range of 10 concentrations, following a 3-fold serial dilution, starting from 10 μM.
# cAMP Hunter cell lines were expanded from freezer stocks. Prior to testing, cells were seeded in a total volume of 20 μL into white walled 384-well microplates and incubated at 37° C. cAMP modulation was determined using the DiscoverX HitHunter cAMP XS+ assay. For Gs agonist determination, cells were incubated with sample to induce response. For Gi agonist determination, cells were incubated with sample in the presence of EC80 forskolin to induce response. For both conditions, media was aspirated from cells and replaced with 15 μL 2:1 HBSS/10 mM HEPES:cAMP XS+ Ab reagent. Intermediate dilution of sample stocks was performed to generate 4× sample in assay buffer (containing 4×EC80 forskolin in the case of antagonist determination). 5 μL of 4× sample was added to cells and incubated at 37° C. or room temperature (RT) for 30 or 60 min. Final assay vehicle concentration was 1%. For antagonist determination, cells were pre-incubated with sample followed by agonist challenge at the EC80 concentration. Media was aspirated from cells and replaced with 10 μL 1:1 HBSS/HEPES:cAMP XS+ Ab reagent. 5 μL of 4× compound was added to the cells and incubated at 37° C. or RT for 30 min. 5 μL of 4×EC80 agonist was added to the cells and incubated at 37° C. or RT for 30 or 60 min. For Gi coupled GPCRs, EC80 forskolin was included. […] Microplates were read following signal generation with a PerkinElmer Envision™ instrument for chemiluminescent signal detection. Compound activity was analyzed using CBIS data analysis suite (ChemInnovation, CA). For Gs agonist mode assays, percentage activity was calculated using the following equation:
# [7] = biological target: T3, SERT (Homo sapiens, UniProt P31645); assay: Transporter SERT Blocker; format: cell-based; details: for Emax: Transporter SERT Blocker, read-out: Max response
# T3 construct: Eurofins DiscoverX Corporation 87-1003DR; host or cells: unnamed cell lines
# Protocol: After cell plating and incubation, media was removed an 25 μL of 1× compound in 1×HBSS/0.1% BSA was added. Compounds were incubated with cells for 30 min at 37° C. After compound incubation, 25 μL of 1× dye loading buffer (1× dye, 1×HBSS/20 mM HEPES) was added to the wells. Cells were incubated for 30-60 min at 37° C. After incubation, microplates were transferred to a PerkinElmer Envision™ instrument for fluorescent signal detection. […] For blocker mode assays, percentage of inhibition was calculated using the following formula: […]
# T3 sequence (P31645 whole entry): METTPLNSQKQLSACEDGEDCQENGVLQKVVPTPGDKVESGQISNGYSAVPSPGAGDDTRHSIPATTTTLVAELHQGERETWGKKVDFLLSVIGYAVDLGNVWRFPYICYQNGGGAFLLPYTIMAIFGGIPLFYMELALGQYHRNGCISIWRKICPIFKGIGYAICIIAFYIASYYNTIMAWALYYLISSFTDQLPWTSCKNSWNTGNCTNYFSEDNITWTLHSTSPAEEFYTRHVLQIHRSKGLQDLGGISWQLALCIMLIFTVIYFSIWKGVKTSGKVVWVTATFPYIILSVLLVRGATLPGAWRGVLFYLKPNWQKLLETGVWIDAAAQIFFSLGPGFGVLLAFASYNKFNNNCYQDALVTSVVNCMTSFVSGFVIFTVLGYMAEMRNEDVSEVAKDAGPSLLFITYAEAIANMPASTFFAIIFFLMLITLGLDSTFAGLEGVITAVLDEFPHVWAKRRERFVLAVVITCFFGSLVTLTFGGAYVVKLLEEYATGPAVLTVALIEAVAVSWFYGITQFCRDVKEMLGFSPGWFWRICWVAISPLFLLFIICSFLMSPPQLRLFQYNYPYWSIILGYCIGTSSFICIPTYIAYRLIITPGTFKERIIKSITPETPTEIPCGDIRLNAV
# CHRM3, sequence (P20309 whole entry): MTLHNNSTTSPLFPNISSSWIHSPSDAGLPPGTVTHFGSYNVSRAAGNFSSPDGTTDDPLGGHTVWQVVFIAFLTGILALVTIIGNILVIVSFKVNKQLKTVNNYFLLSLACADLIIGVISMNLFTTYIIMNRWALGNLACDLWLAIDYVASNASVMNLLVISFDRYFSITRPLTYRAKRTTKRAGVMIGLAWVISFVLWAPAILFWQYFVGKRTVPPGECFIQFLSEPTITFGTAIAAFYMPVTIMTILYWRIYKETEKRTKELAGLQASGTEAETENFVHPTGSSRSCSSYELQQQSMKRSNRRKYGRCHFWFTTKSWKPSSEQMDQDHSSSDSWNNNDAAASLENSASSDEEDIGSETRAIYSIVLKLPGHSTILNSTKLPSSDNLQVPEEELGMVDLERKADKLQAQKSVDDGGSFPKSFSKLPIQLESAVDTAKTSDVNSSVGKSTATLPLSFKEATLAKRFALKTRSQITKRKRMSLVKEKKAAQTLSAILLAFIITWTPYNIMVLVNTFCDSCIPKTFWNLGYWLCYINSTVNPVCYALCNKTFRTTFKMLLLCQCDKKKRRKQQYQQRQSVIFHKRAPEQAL
# HRH1, sequence (P35367 whole entry): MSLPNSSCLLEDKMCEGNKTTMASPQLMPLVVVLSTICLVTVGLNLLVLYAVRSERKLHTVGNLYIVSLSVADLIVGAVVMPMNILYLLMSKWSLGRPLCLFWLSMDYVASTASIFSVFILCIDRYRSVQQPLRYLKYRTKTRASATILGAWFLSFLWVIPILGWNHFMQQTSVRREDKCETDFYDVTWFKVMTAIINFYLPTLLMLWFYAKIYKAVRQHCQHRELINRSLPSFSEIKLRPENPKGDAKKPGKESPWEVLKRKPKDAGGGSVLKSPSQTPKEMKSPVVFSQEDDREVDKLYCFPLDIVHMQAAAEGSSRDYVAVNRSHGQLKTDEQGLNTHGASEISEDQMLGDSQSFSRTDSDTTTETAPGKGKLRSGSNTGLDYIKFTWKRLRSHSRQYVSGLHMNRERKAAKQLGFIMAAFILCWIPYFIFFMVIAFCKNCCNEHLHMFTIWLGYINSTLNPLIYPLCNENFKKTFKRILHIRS
# CNR1, sequence (P21554 whole entry): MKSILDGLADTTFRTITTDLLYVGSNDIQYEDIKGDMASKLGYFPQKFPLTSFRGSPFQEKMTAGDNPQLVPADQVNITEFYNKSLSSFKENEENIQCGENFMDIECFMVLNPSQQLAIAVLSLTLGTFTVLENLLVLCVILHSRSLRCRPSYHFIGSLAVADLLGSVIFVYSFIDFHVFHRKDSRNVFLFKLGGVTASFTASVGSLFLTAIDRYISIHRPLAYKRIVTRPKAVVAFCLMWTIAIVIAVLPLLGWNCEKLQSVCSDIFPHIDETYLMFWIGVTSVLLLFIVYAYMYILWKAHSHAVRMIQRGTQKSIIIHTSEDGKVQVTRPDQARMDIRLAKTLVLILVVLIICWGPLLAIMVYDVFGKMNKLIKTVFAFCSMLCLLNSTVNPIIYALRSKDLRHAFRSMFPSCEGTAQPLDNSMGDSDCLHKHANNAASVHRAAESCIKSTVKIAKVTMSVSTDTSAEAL
smiles,measurement,setting,value
"CC(C)(C)c1ccc(C#CC(O)c2ccccc2)cc1 (racemic) [Compound 3.3, rac-3-(4-(tert-butyl)phenyl)-1-phenylprop-2-yn-1-ol]",EC50,[1],> 10 µM
same,Emax,[1],0%
same,IC50,[2],> 10 µM
same,Emax,[2],0%
same,EC50,[3],> 10 µM
same,Emax,[3],9.8%
same,IC50,[4],> 10 µM
same,Emax,[4],0%
same,IC50,[5]; Enzymatic COX2 Inhibitor,> 10 µM
same,Emax,[5],0%
same,IC50,[6],> 10 µM
same,Emax,[6],13%
same,IC50,[7],> 10 µM
same,Emax,[7],0%
"Clc1cccc(C#Cc2n[nH]c3ncccc23)c1 [Compound 10.1, 3-((3-chlorophenyl)ethynyl)-1H-pyrazolo[3,4-b]pyridine]",Emax,[1]; Ion Channel KvLQT1/minK Opener,2%
same,EC50,"[1]; Ion Channel KvLQT1/minK Opener, read-out: RC50, result type EC50",> 10 µM
same,IC50,[2],> 10 µM
same,Emax,[2],0%
same,EC50,[3],> 10 µM
same,Emax,[3],20.1%
same,Emax,[4]; Calcium Flux HRH1 Antagonist,1%
same,IC50,"[4]; Calcium Flux HRH1 Antagonist, read-out: RC50, result type IC50",> 10 µM
same,Emax,[5]; Enzymatic COX2 Inhibitor,0%
same,IC50,[5]; Enzymatic COX2 Inhibitor,> 10 µM
same,IC50,[6],> 10 µM
same,Emax,[6],0%
same,IC50,[7],> 10 µM
same,Emax,[7],0%
